Several values for one entry are separate records, joined by “and”; a condition that tells them apart may be missing. Identical values can stand only once.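 Results reflect a 48-hour exposure of cells in 96-well plates to compound at five concentrations. At the GI50, growth is halved. TGI denotes the concentration required for complete inhibition of growth.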
Tests used:
Experiment in all cases: DTP human tumour cell line panel, 48 h
[1] = tested on: MDA-N
[2] = tested on: LXFL 529 NSCLC
[3] = tested on: SNB-78 CNS
[4] = tested on: M19-MEL melanoma
[5] = tested on: HOP-18 NSCLC
[6] = tested on: DLD-1 colon
[7] = tested on: DMS 273 small cell lung
[8] = tested on: RXF-631 renal
[9] = tested on: XF 498 CNS
[10] = tested on: SN12K1 renal

SMILES | TGI [1] [µM] | TGI [2] [µM] | TGI [3] [µM] | TGI [4] | TGI [5] [µM] | TGI [6] [µM] | TGI [7] [µM] | TGI [8] [µM] | TGI [9] [µM] | other results
COc1ccc(-c2cc(=O)c3c(O)cc(C)cc3o2)cc1OC | > 100 | – | – | – | – | – | – | – | – | –
O=C(NO)C(=O)Nc1ccc(Cl)cc1[N+](=O)[O-] | – | > 100 | > 100 | > 100 µM | > 100 | > 100 | > 100 | > 100 | – | –
CCC(C(=O)[O-])C(=O)[O-].CCC(C(=O)[O-])C(=O)[O-].N.N.NCCCCCCN.[Pt+4].[Pt+4] | – | 5.12 | 29 | – | 11.5 | 13.9 | 16.4 | – | – | GI50 [2]: 2.37 µM; GI50 [3]: 10.7 µM; GI50 [5]: 4.92 µM; GI50 [6]: 3.79 µM; GI50 [7]: 8.32 µM
CCc1nc(Cl)nc(Cl)c1Cl | 15.2 | – | – | – | – | – | – | – | – | –
CC1=C(c2cc(C(=O)Nc3cccc(C(F)(F)F)c3)ncn2)Sc2ccccc2N1 | – | > 100 | – | > 100 µM | > 100 | > 100 | > 100 | – | > 100 | –
COc1cccc2[nH]c(-c3ccccn3)nc12 | > 100 | – | – | – | – | – | – | – | – | –
OC(c1ccccn1)C1CNc2ccccc21 (configuration not stated) | – | > 100 | > 100 | > 100 µM | – | > 100 | > 100 | – | > 100 | –
Cc1nc(Nc2ccc([N+](=O)[O-])cc2)sc1C(/C=C/c1ccc(N(C)C)cc1)=N/NC(=O)c1ccccc1 | – | > 100 | > 100 | > 100 µM | > 100 | > 100 | – | > 100 | > 100 | –
NC(=O)/C=C/NC(=O)/C=N\O | > 100 | – | – | – | – | – | – | – | – | –
c1ccc(COCC2OC3c4ccccc4COC3C2OCc2ccccc2)cc1 (configuration not stated) | – | – | > 100 | > 100 µM | > 100 | > 100 | > 100 | > 100 | – | –
CC(=O)NNc1nc(C)c(C(/C=C/c2ccc(Cl)cc2)=N/NC(=O)C[N+](C)(C)C)s1 | – | > 100 | – | > 100 µM | > 100 | > 100 | > 100 | – | – | –
COC(=O)C(Cc1nc2ccc(Cl)cc2[nH]c1=O)/C(=N/NC(N)=O)C(=O)Nc1ccc(Cl)cc1 (configuration not stated) | – | > 100 | > 100 | > 100 µM | > 100 | – | > 100 | > 100 | > 100 | –
N#CC1(C=O)c2ccccc2C=CN1C(=O)c1ccccc1 (configuration not stated) | – | > 100 | > 100 | > 100 µM | > 100 | – | > 100 | > 100 | 69.6 | –
Cn1c2c(c3ccccc31)CCN(CCCCN1CCN(c3cccc(Cl)c3)CC1)C2=O | – | 23.7 | 27.8 | 25.5 µM | > 100 | 25.1 | 22.9 | – | 28 | –
O=C([O-])c1ccc(C(=O)[O-])cc1.O=C([O-])c1ccc(C(=O)[O-])cc1.[Mo+2].[Mo+2] | – | > 100 | > 100 | > 100 µM | > 100 | > 100 | > 100 | > 100 | > 100 | GI50 [9]: > 100 µM; GI50 [2]: > 100 µM; GI50 [3]: > 100 µM; GI50 [4]: > 100 µM; GI50 [5]: > 100 µM; GI50 [6]: > 100 µM; GI50 [7]: > 100 µM; GI50 [8]: > 100 µM
CCOC(=O)NC(=O)c1cn(CCN2CCN(C(=O)CCCCCCCCCCNc3ncnc4nc[nH]c34)CC2)c(=O)[nH]c1=O | – | > 100 | > 100 | > 100 µM | > 100 | > 100 | > 100 | – | – | –
O=C1C2c3[nH]c4ccccc4c3[C@@H]3CCCCC3C2C(=O)N1c1ccccc1 (some centres not stated) | – | 39.6 | 72 | 34.8 µM | – | 92.4 | 35.3 | 34.2 | – | –
CCCCCCCCCCCCN(O)C(=O)c1ccccc1 | – | > 100 | – | > 100 µM | > 100 | > 100 | – | – | > 100 | –
COc1cc([C@@H]2c3cc4c(cc3[C@@H](NC(=O)c3cccc(F)c3)C3COC(=O)[C@@H]32)OCO4)cc(OC)c1O (some centres not stated) | – | > 100 | > 100 | 41.4 µM | > 100 | 25.4 | 11.3 | – | – | –
CCc1nc(N)nc(N)c1-c1ccc(NCCc2ccccc2)c([N+](=O)[O-])c1 | > 57.5 | – | – | – | – | – | – | – | – | –
Cc1ccc(C)c(NC(=O)CCc2nc(=S)[nH][nH]2)c1 | – | > 100 | > 100 | > 100 µM | > 100 | > 100 | > 100 | > 100 | > 100 | –

SMILES | TGI [1] [µM] | TGI [2] [µM] | TGI [3] [µM] | TGI [4] | TGI [5] [µM] | TGI [6] [µM] | TGI [7] [µM] | TGI [8] [µM] | TGI [9] [µM] | other results
O=C(O)Cn1c(=O)[nH]c(=O)c2c1ncn2Cc1ccccc1 | – | > 100 | > 100 | > 100 µM | – | > 100 | > 100 | > 100 | > 100 | –
Cc1ccc2[nH]c3c(ncc4[nH]c5ccccc5c43)c2c1 | – | 33.3 | 32.6 | – | 28.1 | 31 | – | – | 35.8 | –
O=C(NNC(=O)c1cc(/C=C/c2cccc([N+](=O)[O-])c2)[nH]c(=S)n1)Nc1ccc(Cl)cc1 | – | > 100 | > 100 | > 100 µM | > 100 | 47.8 | > 100 | – | 81.4 | –
Cc1cc(C)c(S(=O)(=O)ONC(=O)OC(C)(C)C)c(C)c1 | – | > 100 | > 100 | > 100 µM | – | > 100 | > 100 | > 100 | > 100 | –
CCCCCC/C=C\CCCCCCCCCC1=CC(=O)C=C(OC)C1=O | 21.8 | – | – | – | – | – | – | – | – | –
CC/C(C)=C1\OC(=O)C(C)C(O)C(Cc2cccnc2)NC(=O)C(NC(=O)c2ncccc2O)C(C)OC1=O (configuration not stated) | > 100 | – | – | – | – | – | – | – | – | –
COC12CC(=O)C(C(C)=O)=C(O)C1(C)c1c(OC(C)=O)c(C)c(O)c(C(C)=O)c1O2 (configuration not stated) | – | > 100 | > 100 | > 100 µM | 51.9 | – | – | > 100 | 70.7 | –
O=C(NCCCCCCCCNC(=O)c1cccc2ccccc12)c1cccc2ccccc12 | > 100 | > 100 | 48.3 | > 100 µM | > 81.4 | > 100 | > 100 | > 82 | 20.9 | –
CSc1ccc(/C=C/c2ccnc3ccccc23)cc1 | 27 | – | – | – | – | – | – | – | – | –
O=C1c2c(O)cc(O)cc2OC(c2ccc(O)cc2O)C1O (configuration not stated) | > 100 | – | – | – | – | – | – | – | – | –
COc1ccc(C(=O)/C=C/c2ccc(OCC(=O)N3CCN(c4ccccc4)CC3)cc2)cc1 | > 100 | > 100 | 54.8 | > 100 µM | > 100 | > 100 | > 100 | – | > 93.9 | –
Cn1c(=S)c2[nH]c(SCCN3CCCC3)nc2n(C)c1=O | > 100 | – | – | – | – | – | – | – | – | –
CNC1C(O)C(OC2C(N)CC(N)C(OC3OC(C(C)O)C(O)C(O)C3N)C2O)OCC1(C)O (configuration not stated) | > 100 | – | – | – | – | – | – | – | – | –
COc1ccc2c(c1)CCC1=CC3(CCC12C)SCCS3 (configuration not stated) | 6.36 | – | – | – | – | – | – | – | – | –
COc1ccc(/C(=N/NC(N)=O)C(c2ccc(OC)cc2)C2C(=O)Oc3ccccc32)cc1 (configuration not stated) | – | > 100 | > 100 | > 100 µM | – | > 100 | > 100 | > 100 | > 100 | –
O=C1/C(=C/c2ccccc2)CN(C(=O)OCc2ccccc2)C/C1=C\c1ccccc1 | 13.1 | – | 25.4 | 7 µM and 13.6 µM | – | 14.2 | 14.3 | > 31.6 | > 31.6 | GI50 [4]: 2.01 µM; GI50 [6]: 4.14 µM; GI50 [7]: 2.62 µM
COc1cc(-c2cc(=O)c3cc(C)c(C)c(C(=O)O)c3o2)cc(OC)c1OC | – | > 100 | > 100 | > 100 µM | – | > 100 | > 100 | > 100 | > 100 | –
CN(C)c1n/c(=N/c2ncn[nH]2)ss1 | – | > 100 | > 100 | > 100 µM | > 100 | > 100 | > 100 | – | > 100 | –
CC(C)(C)C(=O)O[C@@H]1COC2C(O)COC21 (some centres not stated) | – | > 100 | > 100 | > 100 µM | > 100 | > 100 | > 100 | > 100 | > 100 | –
Nc1nc(N)c2nc(CNc3ccc(C(=O)NC(CCCNC(=O)c4ccccc4C(=O)O)C(=O)O)cc3)cnc2n1 (configuration not stated) | > 100 | > 100 | > 100 | > 100 µM | > 100 | > 100 | > 100 | – | > 100 | GI50 [4]: 0.122 µM; GI50 [5]: 24.8 µM and 98 µM; TGI [10]: > 100 µM; GI50 [1]: 0.00127 µM
